Where a SMILES comes first, the peptide text is derived from it.
What was measured:
Assay type in all cases: cell-based, human
β1 sub-unit of integrin = assay: β1 integrin immunolabelling, HUVEC cells; conditions: 20 μM, 48 h
Protocol: FIG. 23: Effect of YSNSG (SEQ ID NO: 3) cyclopeptide on the distribution of β1 integrin subunits on the surface of HUVEC cells. The cells were cultivated on glass slides in the absence (control) or in the presence of 20 μM of YSNSG (SEQ ID NO: 3) cyclopeptide. After 48 h of incubation, the cells were fixed and incubated in the presence of antibodies directed against the β1 integrin subunit. The slides were observed using a confocal microscope.
The cells were seeded onto sterile glass slides placed in 24-well plates (2×10^4 cells/well) in a suitable medium containing 5% serum in the presence or absence of YSNSG (SEQ ID NO: 3) cyclopeptide. After 24 and 48 hours incubation, the cells were fixed for 15 minutes in methanol. Three washes of 5 minutes in TBS-T were carried out, then the cells were incubated for 30 minutes at ambient temperature in a saturation solution (TBS-T containing 3% BSA). The cells were then incubated for 2 hours at ambient temperature in the presence of primary antibody diluted to 1/100 in TBS-T containing 3% BSA.

HMEC-1 cells = assay: Formation of capillary pseudotubes on Matrigel; conditions: 24 hours
Protocol: FIG. 17: In vitro anti-angiogenic activity of cyclopeptide YSNSG (SEQ ID NO: 3). A: microscope photographs of the network of capillary pseudotubes of HMEC-1 endothelial cells after 24 hours incubation in the absence of peptide (control; 1), with the cyclopeptide YSNSG (SEQ ID NO: 3) at a concentration of 10 or 20 μM (2 and 3 respectively) or with the linear heptapeptide CNYYSNS (SEQ ID NO: 5) (20 μM) (positive control; 4). B: quantification of number of pseudotubes in photographs in A;
(§1) The in vitro anti-angiogenic activity of the cyclopeptide YSNSG (SEQ ID NO: 3) was measured on the formation of capillary pseudotubes by endothelial HMEC-1 or HUVEC cells deposited on a Matrigel mat.
A solution of Matrigel (ECM gel: 10 mg/ml) was deposited in a sterile manner in 24-well plates (Nunclon) in an amount of 250 μl per well onto piled ice. Gel formation was obtained by incubating the plate at 37° C. for 30 min. HMEC-1 cells or HUVEC cells at sub-confluence were detached from their plastic culture support by adding trypsin/EDTA then taken up into suspension in the culture medium for endothelial cells and diluted to a concentration of 2×10^5 cells per ml. 100 μl volumes of this cell suspension were deposited on the gel surface. […] Quantification was carried out using image analysis software.

u-PAR = assay: Western blot of u-PAR, HUVEC cells; conditions: 20 μM
Protocol: FIG. 21: Effect of YSNSG (SEQ ID NO: 3) cyclopeptide on the expression of the u-PA receptor: u-PAR by HUVEC cells. The secretion of u-PAR was analyzed by Western blot (A) in a medium conditioned by HUVEC cells in the absence (control) or in the presence of 20 μM of the cyclopeptide YSNSG (SEQ ID NO: 3). Quantification was carried out using Bio 1D software (B);
(§2) The samples underwent 10% polyacrylamide gel electrophoresis in the presence of 0.1% SDS then were transferred onto Immobilon-P membranes (Millipore, St Quentin en Yvelines, France). The membranes were saturated with 5% freeze dried skimmed milk, Tween 20 0.1% in a 50 mM Tris-HCl, 150 mM NaCl buffer, pH 7.5 (TBS) for 2 hours at ambient temperature. The membranes were then incubated overnight at 4° C. with anti-MMP-14, anti-PAI-1 and anti-u-PAR antibodies then incubated for one hour at ambient temperature with a secondary antibody (anti-IgG) conjugated with peroxidase. The immune complexes were visualized with an ECL chemoluminescence detection kit.

actin cytoskeleton = assay: Labelling actin F (phalloidin), HUVEC cells; conditions: 20 μM, 48 h
Protocol: FIG. 22: Effect of YSNSG (SEQ ID NO: 3) cyclopeptide on the organization of the cytoskeleton of HUVEC cells. The cells were cultivated on glass slides in the absence (control) or in the presence of 20 μM of YSNSG (SEQ ID NO: 3) cyclopeptide. After 48 h of incubation, the cells were fixed, permeabilized, incubated with phalloidin (A) or with an anti-Phospho-FAK antibody (B) then with Hoechst-33342. The slides were observed under a confocal microscope;
The cells were seeded onto sterile glass slides placed in a 24-well plate (2×10^4 cells/well) in a suitable medium containing 5% of serum, in the presence or absence of the cyclopeptide YSNSG (SEQ ID NO: 3). After 24 and 48 hours incubation, the cells were fixed with 3.7% formaldehyde for 10 minutes at ambient temperature and permeabilized for 3 minutes with an acetone solution at −20° C. Three 5 minute washes in PBS were carried out, then the cells were incubated for 30 minutes at ambient temperature in a saturation solution (PBS containing 1% bovine serum albumin). The cells were then incubated for 1 hour with phalloidin coupled with Alexa Fluor® 568 (diluted 1/40 in PBS containing 1% BSA) then washed 3 times for 5 minutes with PBS.

HUVEC cells [1] = assay: Formation of capillary pseudotubes on Matrigel; conditions: 20 μM
Protocol: as §1
A solution of Matrigel (ECM gel: 10 mg/ml) was deposited in a sterile manner in 24-well plates (Nunclon) in an amount of 250 μl per well onto piled ice. Gel formation was obtained by incubating the plate at 37° C. for 30 min. HMEC-1 cells or HUVEC cells at sub-confluence were detached from their plastic culture support by adding trypsin/EDTA then taken up into suspension in the culture medium for endothelial cells and diluted to a concentration of 2×10^5 cells per ml. 100 μl volumes of this cell suspension were deposited on the gel surface. After incubating for 1 hour at 37° C. to allow cell adhesion, the various peptides were added in solution to 400 μl of the culture medium (final concentration 10 or 20 μM). Pseudotube formation was observed under the microscope and photographed, after incubating for 24 hours. Quantification was carried out using image analysis software.

MT1-MMP = assay: Western blot of proMMP-14 / MMP-14, HUVEC membrane extracts; conditions: 20 μM
Protocol: FIG. 19: Effect of YSNSG (SEQ ID NO: 3) cyclopeptide on expression and activation of MMP-14 by HUVEC cells. The expression of proMMP-14 and MMP-14 was studied by Western blot (A). The HUVEC cells were cultivated in the absence (control) or in the presence of 20 μM of YSNSG (SEQ ID NO: 3) cyclopeptide and the corresponding membrane extracts were analyzed. Quantification was carried out using Bio 1D software (B);
as §2

HUVEC cells [2] = assay: Scar wounding technique (artificial wound model); conditions: 48 h incubation, 20 μM
Protocol: FIG. 18: In vitro inhibition of HUVEC cell migration in the presence of YSNSG (SEQ ID NO: 3) cyclopeptide. Microscope photographs of artificial wounds produced on a monolayer of endothelial cells at T0 and T48h in the absence of peptide (control) or in the presence of 20 μM of YSNSG (SEQ ID NO: 3) cyclopeptide;
1×10^5 endothelial cells were seeded into 24-well plates and incubated for 24 hours at 37° C. A wound was made in the cellular monolayer at the centre of the well using a 200 μl cone point. The cells were washed with PBS to eliminate cell debris then incubated in the presence or absence of the cyclopeptide YSNSG (SEQ ID NO: 3). Closing of the wound, a witness to the migratory properties of the cells, was observed under the microscope and photographed after 48 hours incubation.

For `NC(=O)CC1NC(=O)C(CO)NC(=O)C(Cc2ccc(O)cc2)NC(=O)CNC(=O)C(CO)NC1=O` (centres unmarked) [cyclopeptide YSNSG, cyclopeptide YSNSG (SEQ ID NO: 3)] (cyclo(GYSNS); configuration not given here), the “Expression of the β1 sub-unit of integrin at the cellular periphery” value (β1 sub-unit of integrin) was “enhanced”, the “reduces the formation of pseudotubes” value (HMEC-1 cells; 10 μM) was 40% and the “reduces the formation of pseudotubes” value (HMEC-1 cells; 20 μM) was “up to 70%”. The “reduction in the production of u-PAR” value (u-PAR) was −49%, the “organization of the actin cytoskeleton” value (actin cytoskeleton) was “modification” and the “inhibition of capillary pseudotube formation” value (HUVEC cells [1]) was 45%. For the same molecule, the “reduction in the activation of MT1-MMP” value (MT1-MMP) was 56% and the “inhibition of the migration of the HUVEC cells” value (HUVEC cells [2]) was 83%.

Source: patent publication US20090305955A1, “Cyclopeptide with Anti-Cancer Activity Derived from Collagen Type IV” (priority 2006, published 2009)
